The values that follow come from US6201116A, “Halide indicators” (The Regents of the University of California, priority 1999, dated 2001).

Assay [1] concerns cells. Kind of assay: Indicator leakage / cytoplasmic retention. Format: cell-based. The method, then: (§1) Fluorescence microscopy. Fluorescence microscopy measurements were performed as described previously (Chao et al., 1989). Briefly, coverglasses were mounted in a 0.5 ml perfusion chamber in which the cell-free glass surface made contact with an oil immersion objective (Nikon ×40 magnification, numerical aperture[NA] 1.3). Cell fluorescence was excited at 365±10 nm (SPQ) or 420 nm±10 nm (LZQ and LMQ). Emitted fluorescence was detected by a photomultiplier in a Nikon inverted epifluorescence microscope using a 410 nm dichroic mirror and 420 nm barrier filter (SPQ) or a 455 nm dichroic mirror and 500 nm barrier filter (LZQ). For cells colabeled with SPQ and LZQ, SPQ fluorescence was excited at 365±10 nm and detected using a 410 nm dichroic mirror and 455±30 nm interference filter. Confocal fluorescence micrographs were obtained using a Nipkow wheel confocal microscope and cooled CCD camera detector using a ×60 oil immersion objective (Nikon, NA 1.4). LZQ-labeled cells were viewed using a fluorescein filter set (excitation 480±15 nm, emission 520±20 nm).
A time course of LZQ fluorescence during perfusion with physiological saline at 23° C. was generated. A small group of 20-30 cells was illuminated continuously and fluorescence was detected by a photomultiplier using an ×40, 1.3 NA objective. Cellular fluorescence decreased slowly at a rate of 2.5% per hour. To determine the relative contributions of indicator leakage vs. photobleaching to the slow decline in fluorescence, the perfused cells were illuminated intermittently. […] Background fluorescence (in non-labeled cells) was generally <5% of the fluorescence of LZQ-labeled cells.

The nature of assay [2]: In vitro fluorescence quenching by Cl^- (Stern-Volmer). The following applies: in water (or saline). Format: physicochemical. The method, then:
(§2) Computations. In vitro fluorescence quenching studies were carried out at peak excitation and emission wavelengths. Microliter aliquots of the sodium salt of the quenching anion (1 M) were added to indicator solution in 5 mM sodium phosphate (pH 7.2, unless indicated otherwise). Fluorescence intensities in the absence (Fo) and presence (F) of quencher anion ([Q]) were measured to give the Stem-Volmer constant (Kq) as defined by: Fo /F=1+Kq [Q].

In assay [3] the test system is cells. Kind of assay: Response of intracellular fluorescence to osmotically-induced changes in cell volume. The assay is classed as cell-based. As for the experimental part: as §1
The similar LZQ lifetime in cells and water predicts that LZQ fluorescence should be relatively insensitive to cell volume in the absence of I^-. […] When cells were exposed to hypoosmotic medium (225 mOsm), SPQ fluorescence increased by 15±2%, whereas LZQ fluorescence increased by only 4±1%.

Assay [4] in a line: In vitro fluorescence quenching by other ions (Stern-Volmer). The assay is classed as physicochemical. As for the experimental part:
as §2

The next assay deals with CFTR. Kind of assay: Colabeling: effect of LZQ on SPQ fluorescence / CFTR-mediated Cl^- transport. The assay is classed as cell-based. The following applies: Cl^-/NO3^- exchange; SPQ alone vs. colabeled with LZQ. As for the experimental part:
as §1, with “LZQ-labeled cells were viewed using a fluorescein filter set (excitation 480±15 nm, emission 520±20 nm).” left out
Transport measurements. […] For fluorescence microscopy, glass coverslips were then mounted in a perfusion chamber (flow ~2 ml/min) in which solutions were exchanged using a 4-way valve. For microplate reader measurements, cells in 96-well plates were bathed in […] of the `1st buffer` (see Table 3) and […] of the Cl^- -containing, I^- -free solution was injected into the well to drive Cl^- /I^- exchange (protocol 1). […]

The test system of assay [5] is cells. Kind of assay: Cell loading and intracellular distribution (fluorescence/confocal microscopy). The assay is classed as cell-based. As for the experimental part: as §1
Transport measurements. Cells were labeled with LZQ or SPQ by hypotonic shock (loading buffer/water 1:1 containing 2 mM LZQ or 7.5 mM SPQ) for 5 min at room temperature or by overnight incubation with indicators in the cell culture medium. Extracellular indicator was removed by washing just prior to measurements. For fluorescence microscopy, glass coverslips were then mounted in a perfusion chamber (flow ~2 ml/min) in which solutions were exchanged using a 4-way valve. For microplate reader measurements, cells in 96-well plates were bathed in […] of the `1st buffer` (see Table 3) and […] of the Cl^- -containing, I^- -free solution was injected into the well to drive Cl^- /I^- exchange (protocol 1). For stimulation of CFTR using protocol 2, […] of a 1:8 mixture of the 1st buffer and the 2nd buffer containing […] forskolin, 2 mM CPT-cAMP and […] IBMX was added.
LZQ and LMQ were loaded into cells efficiently by hypotonic shock or passive incubation. […] As was found for SPQ, LZQ and LMQ were non-toxic to cells in assays of cell growth (2 mM in culture medium for 72 h).

With `[O-]c1nc2c(N[C@@H]3O[C@H](CO)[C@@H](O)[C@H]3O)ncnc2[n+]2ccccc12` [I, 4-(β-D-ribofuranosylamino)-pyrido [2,1-h] pteridin-11-ium-5-olate], the “cytoplasmic retention vs. LMQ” value in the assay with cells [1] is on record as “better cytoplasmic retention properties than LMQ”. In addition, the “leakage out of cells” value in the assay on cells [1] (microplate section) is recorded as “low rate”. Also, the “rate of decrease of cellular fluorescence” value in the assay with cells [1] (perfusion with physiological saline, 23° C.) came out at 2.5 % per hour. For the same compound, the “Stern-Volmer constant, Cl^-” value in assay [2] is less than 1 M⁻¹. Moreover, the “fluorescence increase upon exposure to hypoosmotic medium” value in the assay on cells [3] (225 mOsm) came to 4±1%. The “fluorescence change upon exposure to hyperosmotic medium” value with cells [3] (600 mOsm, absence of I^-) stood at 5±1%. For the same compound, in assay [4] (K^+), the “Stern-Volmer constant, K^+” value was less than 1 M⁻¹. Also, in assay [4] (NO3^-), the “Stern-Volmer constant, NO3^-” value is less than 1 M⁻¹. Moreover, in assay [4] (Na^+), the “Stern-Volmer constant, Na^+” value was less than 1 M⁻¹. In addition, the “Stern-Volmer constant, acetate” value in assay [4] (acetate) was less than 1 M⁻¹. For the same compound, the “Stern-Volmer constant, phosphate” value in assay [4] (phosphate) was less than 1 M⁻¹. Besides, the “effect on time course of SPQ fluorescence / CFTR-mediated Cl^- transport” value in the assay with CFTR is “did not affect the time course of SPQ fluorescence”. In addition, in the assay on cells [5] (Table 4), the “Cellular properties: staining/distribution” value was “staining uniform”. Besides, in the assay with cells [5] (all cell types tested: T84, Calu-3, JME, LLC-PK1, MDCK, 3T3 fibroblasts, CHO, HeLa), the “labeling of cytoplasm and nucleoplasm” value was “uniform labeling of the cytoplasm and nucleoplasm”. For the same compound, in the assay on cells [5] (confocal, substantially higher SPQ concentration used), the “fluorescence intensity in cells vs. SPQ” value is given as “remarkably more intense”. Besides, the loading into cells result in the assay with cells [5] (hypotonic shock or passive incubation) is reported as “efficiently”.
